Laboratory results from article PMC11566078, “Bactericidal activities and biochemical features of 16 antimicrobial peptides against bovine-mastitis causative pathogens” (Veterinary Research, 2024).
Like-named read-outs stand apart in the source and are kept apart here. Where no end group is shown, it is not given here.

Key:
Type in all cases: cell-based
[1] = system: Streptococcus equi subsp. zooepidemicus ATCC 43079; assay: microbe, parasite or virus in culture
Method: (§1) The standard bacterial strains used for antimicrobial activity assays include Staphylococcus aureus ATCC (American Type Culture Collection, Manassas, VA, USA) 6538, Bacillus cereus ATCC 10876, Enterococcus faecalis ATCC 29212, Streptococcus […] 27956, Streptococcus dysgalactiae ATCC 27957, Streptococcus equi subsp. zooepidemicus ATCC 43079, Escherichia coli ATCC 25922, and Pseudomonas aeruginosa ATCC 27853. Most bacterial strains were cultured in LB medium except for E. faecalis and streptococci, which were cultivated in brain heart infusion (BHI) broth (BD Bioscience). […] Experiments were conducted in triplicate.

[2] = system: Bacillus cereus ATCC 10876; assay: microbe, parasite or virus in culture
Method: as §1

[3] = system: Pseudomonas aeruginosa ATCC 27853; assay: microbe, parasite or virus in culture
Method: as §1

[4] = system: Staphylococcus aureus ATCC 6538; assay: microbe, parasite or virus in culture
Method: as §1

[5] = system: Streptococcus agalactiae ATCC 27956; assay: microbe, parasite or virus in culture
Method: as §1

[6] = system: Enterococcus faecalis ATCC 29212; assay: microbe, parasite or virus in culture
Method: as §1

[7] = system: Streptococcus dysgalactiae ATCC 27957; assay: microbe, parasite or virus in culture
Method: as §1

[8] = system: eight standard bacterial strains
Method: as §1

[9] = system: Staphylococcus haemolyticus; assay: MIC against field isolate from milk with high SCC; conditions: field isolate from milk; WST colourimetric, 37 °C 6 h; triplicate
Method: (§2) All plates were cultivated aerobically.
(§3) Experiments were conducted in triplicate.

[10] = system: Escherichia coli ATCC 25922; assay: microbe, parasite or virus in culture; conditions: MH broth, WST colourimetric, 1.5 × 10^5 cells/well, 37 °C 6 h + 2 h reagent, A450, triplicate
Method: as §1

[11] = system: Staphylococcus epidermidis; assay: microbe, parasite or virus in culture; conditions: field isolate from milk; WST colourimetric, 37 °C 6 h; triplicate
Method: as §2, §3

Staphylococcus xylosus = assay: microbe, parasite or virus in culture; conditions: field isolate from milk; WST colourimetric, 37 °C 6 h; triplicate
Method: as §2, §3

[12] = system: Staphylococcus chromogenes; assay: microbe, parasite or virus in culture; conditions: field isolate from milk; WST colourimetric, 37 °C 6 h; triplicate
Method: as §2, §3

[13] = only some Gram-negative and Gram-positive strains, range stated for the group of peptides
[14] = ATCC 43079, BHI broth, WST colourimetric, 37 °C 6 h, triplicate
[15] = ATCC 10876, MH broth, WST colourimetric, 37 °C 6 h, triplicate
[16] = ATCC 27853, CAMHB, WST colourimetric, 37 °C 6 h, triplicate
[17] = ATCC 6538, MH broth, WST colourimetric, 37 °C 6 h, triplicate
[18] = ATCC 27956, BHI broth, WST colourimetric, 37 °C 6 h, triplicate
[19] = ATCC 29212, BHI broth, WST colourimetric, 37 °C 6 h, triplicate
[20] = ATCC 27957, BHI broth, WST colourimetric, 37 °C 6 h, triplicate

Substance	Minimal inhibitory concentration, Streptococcus equi subsp. zooepidemicus ([1]; ATCC 43079, 6 h)	Minimal inhibitory concentration, Bacillus cereus ([2]; ATCC 10876, 6 h)	Minimal inhibitory concentration, Pseudomonas aeruginosa ([3]; ATCC 27853, 6 h)	Minimal inhibitory concentration, Staphylococcus aureus ([4]; ATCC 6538, 6 h)	Minimal inhibitory concentration, Streptococcus agalactiae ([5]; ATCC 27956, 6 h)	Minimal inhibitory concentration, Enterococcus faecalis ([6]; ATCC 29212, 6 h)	Minimal inhibitory concentration, Streptococcus dysgalactiae ([7]; ATCC 27957, 6 h)	MICs, range over the strains against which active [8, 13] [µM]	other results
GGLRSLGRKILRAWKKYGPIIVPIIRIG [BMAP-28]	> 40 (12.6) μg/mL	7 (2.2) μg/mL	9 (2.9) μg/mL	5 (1.6) μg/mL	> 40 (12.6) μg/mL	15 (4.8) μg/mL	> 40 (12.6) μg/mL	0.7 to 18.8	
GRFRRLRKKTRKRLKKIGKVLKWIPPIVGSIPLGCG [PMAP-36]	> 40 (9.6) μg/mL	28 (6.7) μg/mL	8 (1.9) μg/mL	9 (2.2) μg/mL	> 40 (9.6) μg/mL	> 40 (9.6) μg/mL	> 40 (9.6) μg/mL		
ILGRLRDLLRRGGRKIGQGLERIGQRIQGFFSNREPMEES [HA-CATH]	> 40 (8.6) μg/mL	25 (5.4) μg/mL	> 40 (8.6) μg/mL	26 (5.6) μg/mL	> 40 (8.6) μg/mL	> 40 (8.6) μg/mL	> 40 (8.6) μg/mL	0.7 to 18.8	
KRRGSVTTRYQFLMIHLLRPKKLFA [EA-CATH1]	> 40 (13.1) μg/mL	> 40 (13.1) μg/mL	19 (6.1) μg/mL	41 (13.4) μg/mL	> 40 (13.1) μg/mL	30 (9.8) μg/mL	> 40 (13.1) μg/mL	0.7 to 18.8	
Lysostaphin: bacteriocin produced by Staphylococcus simulans, purchased (Sigma Aldrich)									Minimal inhibitory concentration, Staphylococcus haemolyticus [9]: 1 (37.3) μg/mL; Minimal inhibitory concentration, Streptococcus equi subsp. zooepidemicus [1, 14]: > 160 (29.7) μg/mL; Minimal inhibitory concentration, Bacillus cereus [2, 15]: > 160 (29.7) μg/mL; Minimal inhibitory concentration, Escherichia coli [10]: > 160 (29.7) μg/mL; Minimal inhibitory concentration, Pseudomonas aeruginosa [3, 16]: > 160 (29.7) μg/mL; Minimal inhibitory concentration, Staphylococcus aureus [4, 17]: 1 µg/mL; Minimal inhibitory concentration, Streptococcus agalactiae [5, 18]: > 160 (29.7) μg/mL; Minimal inhibitory concentration, Enterococcus faecalis [6, 19]: > 160 (29.7) μg/mL; Minimal inhibitory concentration, Streptococcus dysgalactiae [7, 20]: > 160 (29.7) μg/mL; Minimal inhibitory concentration, Staphylococcus epidermidis [11]: 1 (37.3) μg/mL; Minimal inhibitory concentration, Staphylococcus xylosus (Staphylococcus xylosus): 0.5 (18.7) μg/mL; Minimal inhibitory concentration, Staphylococcus chromogenes [12]: 0.25 (9.3) μg/mL
MRGGRLCYCRRRFCVCVGR (disulfide (positions not given here)) [PG-1, pig cathelicidin produced recombinantly with a GFP-scaffold system, CNBr cleaved, disulfide bonds installed]								0.7 to 18.8	Minimal inhibitory concentration, Streptococcus equi subsp. zooepidemicus [1, 14]: > 40 (17.5) μg/mL; Minimal inhibitory concentration, Bacillus cereus [2, 15]: > 40 (17.5) μg/mL; Minimal inhibitory concentration, Escherichia coli [10]: 23 (10.0) μg/mL; Minimal inhibitory concentration, Pseudomonas aeruginosa [3, 16]: 20 (8.7) μg/mL; Minimal inhibitory concentration, Streptococcus agalactiae [5, 18]: > 40 (17.5) μg/mL; Minimal inhibitory concentration, Enterococcus faecalis [6, 19]: > 40 (17.5) μg/mL; Minimal inhibitory concentration, Streptococcus dysgalactiae [7, 20]: 32 (14.0) μg/mL
Nisin									Minimal inhibitory concentration, Streptococcus equi subsp. zooepidemicus [1, 14]: 4 (1.2) μg/mL; Minimal inhibitory concentration, Bacillus cereus [2, 15]: 4 (1.2) μg/mL; Minimal inhibitory concentration, Escherichia coli [10]: > 64 (19.2) μg/mL; Minimal inhibitory concentration, Pseudomonas aeruginosa [3, 16]: > 64 (19.2) μg/mL; Minimal inhibitory concentration, Staphylococcus aureus [4, 17]: 2 (0.60) μg/mL; Minimal inhibitory concentration, Streptococcus agalactiae [5, 18]: 2 (0.60) μg/mL; Minimal inhibitory concentration, Streptococcus dysgalactiae [7, 20]: 4 (1.2) μg/mL; MICs, range over all Gram-positive strains in the panel ([8]; all Gram-positive strains of the standard panel): 2 to 16 µg/mL
RRRPRPPYLPRPRPPPFFPPRLPPRIPPGFPPRFP [PR-35]	> 40 (9.5) μg/mL	> 40 (9.5) μg/mL	> 40 (9.5) μg/mL	> 40 (9.5) μg/mL	> 40 (9.5) μg/mL	> 40 (9.5) μg/mL	> 40 (9.5) μg/mL		
SKFFRKARKKLGKGLQKIKNVLRKY [ΔHg-CATH]	15 (4.9) μg/mL	> 40 (13.2) μg/mL	5 (1.7) μg/mL	> 40 (13.2) μg/mL	> 40 (13.2) μg/mL	> 40 (13.2) μg/mL	15 (4.9) μg/mL		MICs, range over the strains against which active [8]: 0.7 to 18.8 µM
TRSRWRRFIRGAGRFARRYGWRIA [ΔPb-CATH4]	20 (6.6) μg/mL	> 40 (13.1) μg/mL	11 (3.5) μg/mL	4 (1.3) μg/mL	> 40 (13.1) μg/mL	> 40 (13.1) μg/mL	> 40 (13.1) μg/mL		MICs, range over the strains against which active [8]: 0.7 to 18.8 µM
VKRTKRGARRGLTKVLKKIFGSIVKKAVSKGV [ΔModoCath1]			2.9 µM	11 (3.2) μg/mL		2.9 µM		0.7 to 18.8	
VRRSKRGIKVPSFVKKVLKDVVSESIS [ΔModoCath6]	> 40 (13.2) μg/mL	> 40 (13.2) μg/mL	> 40 (13.2) μg/mL	> 40 (13.2) μg/mL	> 40 (13.2) μg/mL	> 40 (13.2) μg/mL	> 40 (13.2) μg/mL		
WYQLIRTFGNLIHQKYRKLLEAYRKLRD [ΔModoCath5]	> 40 (11.0) μg/mL	26 (7.3) μg/mL	> 40 (11.0) μg/mL	6 (1.7) μg/mL	> 40 (11.0) μg/mL	10 (2.8) μg/mL	> 40 (11.0) μg/mL		
